Consider 20 compounds from ChEMBL document CHEMBL3286098, “α-Methylated simplified resiniferatoxin (sRTX) thiourea analogues as potent and stereospecific TRPV1 antagonists” (Bioorg Med Chem Lett, 2014).

Assay [1] deals with Transient receptor potential cation channel subfamily V member 1 (Rattus norvegicus) (UniProt O35433). As to the kind of experiment: Agonist activity at rat TRPV1 heterologously expressed in CHO cells assessed as […] [45Ca2+] uptake by liquid scintillation counting. It is filed as cell-based.
The target of assay [2] is T1, Transient receptor potential cation channel subfamily V member 1 (Rattus norvegicus, UniProt O35433). As to the kind of experiment: Antagonist activity at rat TRPV1 heterologously expressed in CHO cells assessed as inhibition of capsaicin-induced [45Ca2+] uptake by liquid scintillation counting. It is filed as cell-based.
In assay [3] the target is T1, Transient receptor potential cation channel subfamily V member 1. Put plainly: Displacement of [3H]RTX from rat TRPV1 after 60 mins by competitive binding assay.

Each structure is given as a SMILES string. Activity calls are given as the source filed them. The calls are words filed in the database; no cut-off is given here.

T1 sequence (O35433 whole entry): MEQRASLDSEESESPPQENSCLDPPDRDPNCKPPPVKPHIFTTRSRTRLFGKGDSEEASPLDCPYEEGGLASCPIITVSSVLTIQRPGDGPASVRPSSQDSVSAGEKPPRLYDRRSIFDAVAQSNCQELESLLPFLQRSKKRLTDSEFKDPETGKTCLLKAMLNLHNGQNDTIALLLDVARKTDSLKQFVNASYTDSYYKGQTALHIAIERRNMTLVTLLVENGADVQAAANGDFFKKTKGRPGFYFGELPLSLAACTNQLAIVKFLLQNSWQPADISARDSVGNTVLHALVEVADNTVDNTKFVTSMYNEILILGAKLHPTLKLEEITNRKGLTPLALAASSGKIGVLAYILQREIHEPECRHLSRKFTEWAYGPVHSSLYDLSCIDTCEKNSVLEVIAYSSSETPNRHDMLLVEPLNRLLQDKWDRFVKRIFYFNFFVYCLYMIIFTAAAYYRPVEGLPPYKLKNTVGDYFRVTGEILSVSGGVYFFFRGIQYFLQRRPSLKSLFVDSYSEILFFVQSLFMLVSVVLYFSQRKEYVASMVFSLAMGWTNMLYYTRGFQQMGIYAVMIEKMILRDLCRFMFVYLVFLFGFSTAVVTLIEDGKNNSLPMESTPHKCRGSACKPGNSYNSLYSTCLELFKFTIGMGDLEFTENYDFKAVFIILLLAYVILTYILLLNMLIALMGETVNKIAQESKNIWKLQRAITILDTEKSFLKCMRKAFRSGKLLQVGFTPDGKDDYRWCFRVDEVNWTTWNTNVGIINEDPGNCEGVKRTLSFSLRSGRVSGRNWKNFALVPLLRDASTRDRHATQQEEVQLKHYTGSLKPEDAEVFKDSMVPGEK
Transient receptor potential cation channel subfamily V member 1 (Rattus norvegicus), sequence (O35433 whole entry): as above

Turning to `Cc1ccc(CC(CNC(=S)NC(C)c2ccc(NS(C)(=O)=O)cc2)COC(=O)C(C)(C)C)cc1C` (racemic), in assay [1], the outcome was inactive.
Still for that read-out and setting: to `C[C@H](NC(=S)NC[C@H](COC(=O)C(C)(C)C)Cc1ccccc1)c1ccc(NS(C)(=O)=O)cc1` belongs “inactive”; to `C[C@@H](NC(=S)N[C@H](COC(=O)C(C)(C)C)Cc1ccccc1)c1ccc(NS(C)(=O)=O)cc1`, “inactive”.
As for `Cc1ccc(C[C@@H](CNC(=S)N[C@H](C)c2ccc(NS(C)(=O)=O)cc2)COC(=O)C(C)(C)C)cc1C`, the outcome in assay [1] was inactive. The Ki was determined as 13.2 nM in assay [2] and 2.12 nM in assay [3].
For `CC(C)(C)C(=O)OC[C@@H](CNC(=S)NCc1ccc(NS(C)(=O)=O)cc1)Cc1ccccc1`, in that order: “inactive”, 64.3 nM and 252 nM.
In the same order, the values of `CC(C)(C)C(=O)OC[C@H](CNC(=S)NCc1ccc(NS(C)(=O)=O)cc1)Cc1ccccc1` are “inactive”, 80.6 nM and 236 nM.
`CC(C)(C)C(=O)OC[C@@H](CNC(=S)NCc1ccc(NS(C)(=O)=O)cc1)Cc1ccc(C(C)(C)C)cc1`: the Ki in assay [2] stood at 86 nM; in assay [3], 64 nM.
On to `C[C@@H](NC(=S)NC[C@H](COC(=O)C(C)(C)C)Cc1ccc(C(C)(C)C)cc1)c1ccc(NS(C)(=O)=O)cc1`, for which the outcome in assay [1] was inactive. In assay [3], this compound yielded a Ki of 17.9 nM.
As for `C[C@H](NC(=S)N[C@@H](COC(=O)C(C)(C)C)Cc1ccccc1)c1ccc(NS(C)(=O)=O)cc1`, in assay [1], the outcome was inactive.
For `Cc1ccc(CC(CNC(=S)N[C@H](C)c2ccc(NS(C)(=O)=O)cc2)COC(=O)C(C)(C)C)cc1C` (stereo not given in full), the result in assay [1] was inactive.
On the same count and under the same terms, to `C[C@@H](NC(=S)NCC(COC(=O)C(C)(C)C)Cc1ccc(C(C)(C)C)cc1)c1ccc(NS(C)(=O)=O)cc1` (stereo not given in full) belongs “inactive”.
In the case of `Cc1ccc(C[C@H](CNC(=S)N[C@H](C)c2ccc(NS(C)(=O)=O)cc2)COC(=O)C(C)(C)C)cc1C`, the result in assay [1] was inactive.
For `Cc1ccc(C[C@H](CNC(=S)NCc2ccc(NS(C)(=O)=O)cc2)COC(=O)C(C)(C)C)cc1C`, the Ki in assay [2] was found to be 67 nM; in assay [3] it was 29.3 nM.
Take `CC(NC(=S)NCC(COC(=O)C(C)(C)C)Cc1ccc(C(C)(C)C)cc1)c1ccc(NS(C)(=O)=O)cc1` (racemic): the outcome in assay [1] was inactive.
Turning to `C[C@@H](NC(=S)NC[C@@H](COC(=O)C(C)(C)C)Cc1ccc(C(C)(C)C)cc1)c1ccc(NS(C)(=O)=O)cc1`, the result in assay [1] was inactive. This compound registered a Ki in assay [3] of 6.75 nM.
With `C[C@H](NC(=S)NC[C@@H](COC(=O)C(C)(C)C)Cc1ccccc1)c1ccc(NS(C)(=O)=O)cc1`, the result in assay [1] was inactive.
The same measure, in the same setting: under `C[C@@H](NC(=S)N[C@@H](COC(=O)C(C)(C)C)Cc1ccccc1)c1ccc(NS(C)(=O)=O)cc1` stands “inactive”; under `C[C@@H](NC(=S)NC[C@H](COC(=O)C(C)(C)C)Cc1ccccc1)c1ccc(NS(C)(=O)=O)cc1`, “inactive”.
The same measure, in the same setting: to `C[C@H](NC(=S)N[C@H](COC(=O)C(C)(C)C)Cc1ccccc1)c1ccc(NS(C)(=O)=O)cc1` belongs “inactive”; to `C[C@@H](NC(=S)NC[C@@H](COC(=O)C(C)(C)C)Cc1ccccc1)c1ccc(NS(C)(=O)=O)cc1`, “inactive”.
